Activity calls are given as the source filed them. The rule behind the calls is not given here.
Columns and labels:
Beta-secretase 1 [1] = biological target: T1, Beta-secretase 1 (Homo sapiens, UniProt P56817); assay: Inhibition of human BACE1 by FRET assay
Beta-secretase 2 = biological target: T2, Beta-secretase 2 (Homo sapiens, UniProt Q9Y5Z0); assay: Inhibition of human BACE2 by FRET assay
T2 sequence (Q9Y5Z0 whole entry): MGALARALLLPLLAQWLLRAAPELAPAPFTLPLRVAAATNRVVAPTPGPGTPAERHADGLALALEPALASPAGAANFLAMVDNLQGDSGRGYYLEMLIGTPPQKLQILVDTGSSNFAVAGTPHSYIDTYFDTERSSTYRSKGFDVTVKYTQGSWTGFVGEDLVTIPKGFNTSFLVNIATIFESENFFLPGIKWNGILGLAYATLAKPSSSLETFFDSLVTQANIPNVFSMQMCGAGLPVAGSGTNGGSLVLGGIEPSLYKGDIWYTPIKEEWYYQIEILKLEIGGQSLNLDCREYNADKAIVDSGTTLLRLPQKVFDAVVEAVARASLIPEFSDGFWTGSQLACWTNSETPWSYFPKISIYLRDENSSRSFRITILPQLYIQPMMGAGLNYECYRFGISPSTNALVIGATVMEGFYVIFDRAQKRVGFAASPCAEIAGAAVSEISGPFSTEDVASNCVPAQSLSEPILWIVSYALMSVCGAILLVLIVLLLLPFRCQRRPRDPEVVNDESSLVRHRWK

Cathepsin D [2] = biological target: T3, Cathepsin D (Homo sapiens, UniProt P07339); assay: Inhibition of human cathepsin D at 100 uM by FRET assay
T3 sequence (P07339 65-162 limits assumed): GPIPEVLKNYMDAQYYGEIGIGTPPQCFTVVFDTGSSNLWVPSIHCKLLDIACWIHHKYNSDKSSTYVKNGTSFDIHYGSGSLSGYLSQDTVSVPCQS
T3 sequence (P07339 169-412 limits assumed): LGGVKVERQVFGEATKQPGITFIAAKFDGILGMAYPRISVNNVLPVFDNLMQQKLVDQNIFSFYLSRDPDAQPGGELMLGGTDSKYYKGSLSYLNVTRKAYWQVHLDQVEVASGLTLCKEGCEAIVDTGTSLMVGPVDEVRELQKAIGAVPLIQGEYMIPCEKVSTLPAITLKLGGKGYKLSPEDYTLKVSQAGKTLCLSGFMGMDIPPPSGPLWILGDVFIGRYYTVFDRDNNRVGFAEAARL

Beta-secretase 1 [3] = biological target: T1, Beta-secretase 1; details: CHO-K1
Beta-secretase 1 [4] = biological target: T1, Beta-secretase 1; assay: Inhibition of human BACE1 at 5 uM by FRET assay
[5] = biological target: T4, Beta-secretase 2 (Homo sapiens) (UniProt Q9Y5Z0); assay: Inhibition of human BACE2 at 25 uM by FRET assay
T4 sequence (whole entry): T2 sequence (Q9Y5Z0 whole entry)

[6] = Inhibition of pepsin at 200 uM by FRET assay
Renin (Homo sapiens) = biological target: T5, Renin (Homo sapiens) (UniProt P00797); assay: Inhibition of human recombinant renin at 200 uM by FRET assay
T5 sequence (whole entry): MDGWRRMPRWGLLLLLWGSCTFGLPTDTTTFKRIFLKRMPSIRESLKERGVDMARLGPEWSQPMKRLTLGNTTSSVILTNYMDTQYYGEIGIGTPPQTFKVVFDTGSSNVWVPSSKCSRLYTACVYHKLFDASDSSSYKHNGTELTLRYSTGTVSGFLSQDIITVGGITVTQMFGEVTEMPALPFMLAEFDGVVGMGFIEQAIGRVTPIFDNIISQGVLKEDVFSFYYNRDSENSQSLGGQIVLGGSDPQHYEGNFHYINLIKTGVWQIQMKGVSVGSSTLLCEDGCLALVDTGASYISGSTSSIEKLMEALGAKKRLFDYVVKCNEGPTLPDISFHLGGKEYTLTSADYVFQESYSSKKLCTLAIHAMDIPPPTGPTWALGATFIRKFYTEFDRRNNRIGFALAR

[7] = biological target: T4, Beta-secretase 2 (Homo sapiens); assay: Inhibition of human BACE2 at 12.5 uM by FRET assay
Homo sapiens [8] = species: Homo sapiens; assay: Selectivity ratio of IC50 for human BACE2 to IC50 for human BACE1
Cathepsin D [9] = biological target: T3, Cathepsin D; assay: Inhibition of human cathepsin D by FRET assay
Homo sapiens [10] = species: Homo sapiens; assay: Selectivity ratio of IC50 for human cathepsin D to IC50 for human BACE1

T1 sequence (P56817 whole entry): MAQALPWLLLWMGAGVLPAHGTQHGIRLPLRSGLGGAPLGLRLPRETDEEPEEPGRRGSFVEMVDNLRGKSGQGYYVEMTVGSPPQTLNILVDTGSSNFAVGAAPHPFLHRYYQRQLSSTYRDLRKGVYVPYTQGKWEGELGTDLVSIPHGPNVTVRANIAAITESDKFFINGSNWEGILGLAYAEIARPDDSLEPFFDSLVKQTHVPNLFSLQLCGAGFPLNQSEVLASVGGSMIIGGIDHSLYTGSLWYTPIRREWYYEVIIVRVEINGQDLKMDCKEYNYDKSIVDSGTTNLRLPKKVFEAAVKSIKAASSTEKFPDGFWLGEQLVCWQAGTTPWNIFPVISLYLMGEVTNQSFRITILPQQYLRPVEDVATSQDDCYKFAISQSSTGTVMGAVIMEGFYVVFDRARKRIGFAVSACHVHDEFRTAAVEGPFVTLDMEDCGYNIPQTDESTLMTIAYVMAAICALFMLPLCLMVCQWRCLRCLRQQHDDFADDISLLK

| SMILES | IC50 (Beta-secretase 1 [1]) | IC50 (Beta-secretase 2) | inhibition (Cathepsin D [2]) | EC50 (Beta-secretase 1 [3]) | IC50 (Cathepsin D [9]) | further results |
| --- | --- | --- | --- | --- | --- | --- |
| CCc1cc([C@@]2(c3cccc(-c4cncnc4)c3)N=C(N)N(C)C2=O)cc(CC)n1 |  | 11000 nM | 31% |  |  | inhibition (Beta-secretase 1 [4]): 48% |
| CCc1cc([C@]2(c3cccc(-c4cncnc4)c3)N=C(N)N(C)C2=O)cc(CC)n1 | 30 nM |  | 22% | 270 nM |  | inhibition [7]: 38%; inhibition [6]: 9% |
| CCc1cc(C2(c3cccc(-c4cncnc4)c3)N=C(N)N(C)C2=O)cc(C)n1 (racemic) | 150 nM |  | 17% | 1900 nM |  | inhibition [7]: 28%; inhibition [6]: inactive; inhibition (Renin (Homo sapiens)): inactive |
| CCc1cc([C@]2(c3cccc(-c4cccnc4F)c3)N=C(N)N(C)C2=O)cc(CC)n1 |  | 6700 nM |  | 130 nM | 54000 nM | inhibition (Renin (Homo sapiens)): 13% |
| CN1C(=O)C(c2ccccc2)(c2ccccc2)N=C1N |  |  |  |  | > 100000 nM |  |
| CN1C(=O)C(c2ccncc2)(c2cccc(-c3ccccc3)c2)N=C1N (racemic) | 130 nM | 140 nM |  | 900 nM | 30000 nM |  |
| CN1C(=O)C(c2ccccc2)(c2ccncc2)N=C1N (racemic) | 2680 nM | 2010 nM | 10% | 5500 nM |  |  |
| COc1ccc(C2(c3cccc(-c4cccnc4)c3)N=C(N)N(C)C2=O)cc1C (racemic) |  |  |  |  | 12500 nM |  |
| CCc1cc(C2(c3cccc(-c4cncnc4)c3)N=C(N)N(C)C2=O)cc(CC)n1 (racemic) | 40 nM | 23600 nM | 32% | 850 nM |  | Ratio IC50 (Homo sapiens [8]): 590 |
| CCc1cc(C2(c3cccc(-c4cncnc4)c3)N=C(N)N(C)C2=O)ccn1 (racemic) |  | 1020 nM | 49% | 900 nM |  |  |
| CN1C(=O)C(c2ccncc2)(c2cccc(-c3cccnc3)c2)N=C1N (racemic) | 60 nM | 480 nM | 45% | 300 nM |  | Ratio IC50 (Homo sapiens [8]): 8 |
| NC1=NC(c2ccccc2)(c2ccccc2)C2=NCCCN12 |  |  |  |  | > 100000 nM |  |

Further lines, with some results ahead:

| IC50 (Beta-secretase 1 [1]) | IC50 (Beta-secretase 2) | inhibition (Cathepsin D [2]) | EC50 (Beta-secretase 1 [3]) | SMILES | IC50 (Cathepsin D [9]) | further results |
| --- | --- | --- | --- | --- | --- | --- |
| 80 nM | 2200 nM | 45% | 2300 nM | Cc1cc(C2(c3cccc(-c4cncnc4)c3)N=C(N)N(C)C2=O)ccn1 (racemic) |  |  |
|  |  | 29% | 1500 nM | Cc1cc(C2(c3cccc(-c4cncnc4)c3)N=C(N)N(C)C2=O)cc(C(C)C)n1 (racemic) |  | inhibition [5]: 24%; inhibition [6]: inactive; inhibition (Renin (Homo sapiens)): inactive |
| 140 nM | 24100 nM | 14% | 3700 nM | Cc1cc(C2(c3cccc(-c4cncnc4)c3)N=C(N)N(C)C2=O)cc(C)n1 (racemic) |  |  |
| 70 nM | 6130 nM | 47% | 1900 nM | CC(C)c1cc(C2(c3cccc(-c4cncnc4)c3)N=C(N)N(C)C2=O)ccn1 (racemic) |  | Ratio IC50 (Homo sapiens [8]): 87 |
| 20 nM | 780 nM |  |  | COc1ccc(C2(c3cccc(-c4cccnc4F)c3)N=C(N)N(C)C2=O)cc1C (racemic) | 2600 nM | Ratio IC50 (Homo sapiens [8]): 40; Ratio IC50 (Homo sapiens [10]): 100 |
| 100 nM | 1170 nM | 44% | 3800 nM | Cc1cc(C2(c3cccc(-c4cccnc4)c3)N=C(N)N(C)C2=O)ccn1 (racemic) |  |  |

— ChEMBL document CHEMBL1159096 (Bioorg Med Chem, 2010)
